Among the data in ChEMBL document CHEMBL1125556, “Fluoroquinolones: relationships between structural variations, mammalian cell cytotoxicity, and antimicrobial activity” (J Med Chem, 1992) are IC50 and MIC values, retold here.

SMILES strings stand for the structures. In brackets after ≈: the same amount, converted by molar mass.

One assay has as its system V79. Nature of the assay: Mammalian cell cytotoxicity test in chinese hamster V79 cells (clonogenic cytotoxicity). Format: functional, cell-based.
The nature of assay [1]: Antibacterial activity against five Gram-negative bacteria. The format is functional.
Where [2] appears, read: Cricetulus griseus, V79, read-out: IC50.

Take `Cc1c(F)c(N2CCC(N)C2)cc2c1c(=O)c(C(=O)O)cn2C1CC1` (stereo not drawn): the half-inhibitory concentration (IC50) (commonly the concentration at which inhibition is half-maximal) in the assay on V79 (setting [2]) was 14 µg/mL (≈ 40.5 µM). Further, the MIC – broadly, the lowest concentration found to suppress growth – in assay [1] (read-out: MIC) came to 0.09 µg/mL (≈ 0.261 µM).

As for `CCNCC1CCN(c2c(F)cc3c(=O)c(C(=O)O)cn(CC(F)(F)F)c3c2F)C1` (stereo not drawn), the IC50 in the assay with V79 (setting [2]) stood at 58 µg/mL (≈ 134 µM). For the same molecule, the MIC in assay [1] (read-out: MIC) was 1.82 µg/mL (≈ 4.2 µM).

Turning to `CC1(CN)CCN(c2nc3c(cc2F)c(=O)c(C(=O)O)cn3C2CC2)C1` (stereo not drawn), in the assay with V79 (setting [2]), the IC50 stood at 25 µg/mL (≈ 69.4 µM). Besides, the MIC in assay [1] (read-out: MIC) was 0.35 µg/mL (≈ 0.971 µM).

Regarding `COc1c(N2CCC(C)(CN)C2)c(F)cc2c(=O)c(C(=O)O)cn(C3CC3)c12` (stereo not drawn), in the assay on V79 (setting [2]), the IC50 was 38 µg/mL (≈ 97.6 µM). Besides, the MIC in assay [1] (read-out: MIC) was 0.26 µg/mL (≈ 0.668 µM).

With `NC1CCN(c2nc3c(cc2F)c(=O)c(C(=O)O)cn3C2CC2)C1` (stereo not drawn), the IC50 in the assay with V79 (setting [2]) is 98 µg/mL (≈ 295 µM). The MIC in assay [1] (read-out: MIC) was 0.03 µg/mL (≈ 0.0903 µM).

For `Nc1c(F)c(N2CCC(N)C2)cc2c1c(=O)c(C(=O)O)cn2C1CC1` (stereo not drawn), the IC50 in the assay on V79 (setting [2]) was 54 µg/mL (≈ 156 µM). For the same molecule, the MIC in assay [1] (read-out: MIC) turned out to be 0.04 µg/mL (≈ 0.115 µM).

For `O=C(O)c1cn(C2CC2)c2c(Cl)c(N3CCNCC3)c(F)cc2c1=O`, the IC50 with V79 (setting [2]) is 43 µg/mL (≈ 118 µM). In addition, in assay [1] (read-out: MIC), the MIC is 0.07 µg/mL (≈ 0.191 µM).

For the molecule `CC1(CN)CCN(c2cc3c(cc2F)c(=O)c(C(=O)O)cn3C2CC2)C1` (stereo not drawn), the IC50 in the assay on V79 (setting [2]) was 23 µg/mL (≈ 64 µM). The MIC in assay [1] (read-out: MIC) stood at 0.52 µg/mL (≈ 1.45 µM).

For `Nc1c(F)c(N2CCC(N)C2)c(Cl)c2c1c(=O)c(C(=O)O)cn2C1CC1` (stereo not drawn), in the assay on V79 (setting [2]), the IC50 was 59 µg/mL (≈ 155 µM). The MIC in assay [1] (read-out: MIC) came to 0.08 µg/mL (≈ 0.21 µM).

In the case of `NC1CCCN(c2cc3c(cc2F)c(=O)c(C(=O)O)cn3C2CC2)C1` (stereo not drawn), the IC50 in the assay with V79 (setting [2]) was over 500 µg/mL. In assay [1] (read-out: MIC), the MIC came to 0.91 µg/mL (≈ 2.63 µM).

`NC1CCN(c2c(F)c(Cl)c3c(=O)c(C(=O)O)cn(C4CC4)c3c2Cl)C1` (stereo not drawn): in the assay with V79 (setting [2]), the IC50 was over 500 µg/mL. For the same molecule, in assay [1] (read-out: MIC), the minimal inhibitory concentration (MIC) is 0.13 µg/mL (≈ 0.325 µM).

On to `CCNCC1CCN(c2c(F)c(F)c3c(=O)c(C(=O)O)cn(C4CC4)c3c2F)C1` (stereo not drawn), for which the concentration for half-maximal inhibition (IC50) in the assay on V79 (setting [2]) was 46 µg/mL (≈ 112 µM). In addition, in assay [1] (read-out: MIC), the MIC was determined as 0.56 µg/mL (≈ 1.37 µM).

As to `Cc1c(F)c(N2CCC(N)C2)c(C(F)(F)F)c2c1c(=O)c(C(=O)O)cn2C1CC1` (stereo not drawn), the IC50 in the assay with V79 (setting [2]) is 290 µg/mL (≈ 702 µM). For the same molecule, the minimal inhibitory concentration (MIC) in assay [1] (read-out: MIC) worked out at 0.91 µg/mL (≈ 2.2 µM).

On to `CCNCC1CCN(c2c(F)c(NC(C)=O)c3c(=O)c(C(=O)O)cn(C4CC4)c3c2F)C1` (stereo not drawn), for which the IC50 with V79 (setting [2]) was over 500 µg/mL. Besides, in assay [1] (read-out: MIC), the MIC is over 25 µg/mL.

With `CCNCC1CCN(c2cc3c(cc2F)c(=O)c(C(=O)O)cn3NC)C1` (stereo not drawn), the IC50 with V79 (setting [2]) was over 500 µg/mL. For the same molecule, the MIC in assay [1] (read-out: MIC) is 12.5 µg/mL (≈ 34.5 µM).

On to `NC1CCN(c2c(F)c(F)c3c(=O)c(C(=O)O)cn(C4CC4)c3c2C(F)(F)F)C1` (stereo not drawn), for which the IC50 in the assay on V79 (setting [2]) came to 190 µg/mL (≈ 455 µM). For the same molecule, the minimum inhibitory concentration (MIC) in assay [1] (read-out: MIC) was 25 µg/mL (≈ 59.9 µM).

In the case of `CCNCC1CCN(c2c(F)c(NC)c3c(=O)c(C(=O)O)cn(C4CC4)c3c2F)C1` (stereo not drawn), the concentration for half-maximal inhibition (IC50) in the assay with V79 (setting [2]) amounted to 53 µg/mL (≈ 126 µM). In addition, the minimal inhibitory concentration (MIC) in assay [1] (read-out: MIC) turned out to be 0.69 µg/mL (≈ 1.64 µM).

For the molecule `CC1CN(c2c(F)cc3c(=O)c(C(=O)O)cn(C4CC4)c3c2Cl)CC(C)N1` (stereo not drawn), the IC50 in the assay on V79 (setting [2]) was 140 µg/mL (≈ 355 µM). The MIC in assay [1] (read-out: MIC) amounted to 0.23 µg/mL (≈ 0.584 µM).

As to `NC1CCN(c2cc3c(cc2F)c(=O)c(C(=O)O)cn3C2CC2)CC1`, in the assay with V79 (setting [2]), the IC50 worked out at 230 µg/mL (≈ 666 µM). The MIC in assay [1] (read-out: MIC) worked out at 0.26 µg/mL (≈ 0.753 µM).

As to `COc1c(N2CCC(N)C2)c(F)c(N)c2c(=O)c(C(=O)O)cn(C3CC3)c12` (stereo not drawn), in the assay on V79 (setting [2]), the IC50 is 100 µg/mL (≈ 266 µM). Besides, the MIC in assay [1] (read-out: MIC) worked out at 0.11 µg/mL (≈ 0.292 µM).

In the case of `CNCC1(C)CCN(c2nc3c(cc2F)c(=O)c(C(=O)O)cn3C2CC2)C1` (stereo not drawn), the IC50 with V79 (setting [2]) is 58 µg/mL (≈ 155 µM). Besides, the MIC in assay [1] (read-out: MIC) amounted to 0.6 µg/mL (≈ 1.6 µM).

For `O=C(O)c1cn(C2CC2)c2nc(N3CCNCC3)c(F)cc2c1=O`, the IC50 with V79 (setting [2]) amounted to 120 µg/mL (≈ 361 µM). Besides, the MIC in assay [1] (read-out: MIC) was determined as 0.09 µg/mL (≈ 0.271 µM).

`CCNCC1CCN(c2c(F)cc3c(=O)c(C(=O)O)cn(CC4CC4)c3c2F)C1` (stereo not drawn): in the assay with V79 (setting [2]), the IC50 is 240 µg/mL (≈ 592 µM). In addition, the MIC in assay [1] (read-out: MIC) is 4.17 µg/mL (≈ 10.3 µM).

Take `CCNCC1CCN(c2c(F)cc3c(=O)c(C(=O)O)cn(NC)c3c2F)C1` (stereo not drawn): in the assay with V79 (setting [2]), the IC50 was over 500 µg/mL. Moreover, the minimal inhibitory concentration (MIC) in assay [1] (read-out: MIC) is 0.26 µg/mL (≈ 0.684 µM).

`CCNCC1CCN(c2c(F)cc3c(=O)c(C(=O)O)cn(C4CC4)c3c2F)C1` (stereo in doubt; 7) [PD-117558] came in with an MIC in assay [1] of 0.09 µg/mL (≈ 0.23 µM).

Regarding `CCNCC1CCN(c2cc3c(cc2F)c(=O)c(C(=O)O)cn3C2CC2)C1` (stereo in doubt; 16), the MIC in assay [1] was 0.46 µg/mL (≈ 1.23 µM).

For the molecule `CCNCC1CCN(c2c(F)cc3c(=O)c(C(=O)O)cn(C4CC4)c3c2F)C1` (stereo in doubt; 26b) [PD-117558], the IC50 in the assay on V79 (v79) was found to be 11 µg/mL (≈ 28.1 µM).

`NC1CCN(c2c(F)cc3c(=O)c(C(=O)O)cn(C4CC4)c3c2Cl)C1` (stereo in doubt; 33a) [CLINAFLOXACIN] gave an IC50 in the assay on V79 (v79) of 26 µg/mL (≈ 71.1 µM).

Regarding `COc1c(N2CCC(N)C2)c(F)cc2c(=O)c(C(=O)O)cn(C3CC3)c12` (stereo in doubt; 35a), the IC50 with V79 (setting [2]) was 45 µg/mL (≈ 125 µM).

On to `CCNCC1CCN(c2c(F)cc3c(=O)c(C(=O)O)cn(C4CC4)c3c2Cl)C1` (stereo in doubt; 37a), for which, in the assay on V79 (setting [2]), the IC50 is under 11 µg/mL.

As for `NC1CCN(c2c(F)cc3c(=O)c(C(=O)O)cn(C4CC4)c3c2F)C1` (stereo in doubt; 43), the IC50 with V79 (v79) came to 30 µg/mL (≈ 85.9 µM).

In the assay on V79 (v79), `CCNCC1CCN(c2cc3c(cc2F)c(=O)c(C(=O)O)cn3C2CC2)C1` (stereo in doubt; 66) displayed an IC50 of 160 µg/mL (≈ 428 µM).

`CCNCC1CCN(c2c(F)cc3c(=O)c(C(=O)O)cn(C4CC4)c3c2Cl)C1` (stereo in doubt; 69) had an MIC in assay [1] of 0.14 µg/mL (≈ 0.343 µM).

As to `CCn1cc(C(=O)O)c(=O)c2cc(F)c(N3CCN(C)CC3)cc21` [PEFLOXACIN], in assay [1] (read-out: MIC), the MIC stood at 0.07 µg/mL (≈ 0.21 µM).
